Laboratory results: ChEMBL document CHEMBL1158152, “(D)-2-tert-Butoxycarbonylamino-5,5-difluoro-5-phenyl-pentanoic acid: synthesis and incorporation into the growth hormone secretagogues” (Bioorg Med Chem Lett, 2008)

Columns and labels:
[1] = Volume of distribution at steady state in rat at 5 umole/kg, iv; type: ADME, organism-based; conditions: in vivo, read-out: Vdss
[2] = Oral bioavailability in rat at 15 umole/kg; type: ADME, organism-based; conditions: in vivo
[3] = tested on: Rattus norvegicus; experiment: Increase in GH level in acute anesthetized rat at 1.74 umol/kg, iv after 15min relative to control; type: functional
[4] = Cmax in rat at 15 umole/kg, po; type: ADME, organism-based; design: route oral; conditions: in vivo
[5] = Tmax in rat at 15 umole/kg, po; type: ADME, organism-based; conditions: in vivo
[6] = AUC in rat at 5 umole/kg, iv; type: ADME, organism-based; conditions: plasma
[7] = AUC in rat at 15 umole/kg, po; type: ADME, organism-based; conditions: plasma
[8] = Half life in rat at 5 umole/kg, iv; type: ADME, organism-based; conditions: in vivo
[9] = Mean residence time in rat at 5 umole/kg, iv; type: ADME, organism-based; conditions: in vivo
[10] = Clearance in rat at 5 umole/kg, iv; type: ADME, organism-based; conditions: in vivo
[11] = target: Growth hormone secretagogue receptor type 1 (Homo sapiens, UniProt Q92847); experiment: Agonist activity at GHS receptor; type: functional
[12] = Clearance in rat at 10 umole/kg, iv; type: ADME, organism-based; conditions: in vivo
[13] = Volume of distribution at steady state in rat at 10 umole/kg, iv; type: ADME, organism-based; conditions: in vivo, read-out: Vdss
[14] = Oral bioavailability in rat at 10 umole/kg; type: ADME, organism-based; conditions: in vivo
[15] = Cmax in rat at 10 umole/kg, po; type: ADME, organism-based; design: route oral; conditions: in vivo
[16] = Tmax in rat at 10 umole/kg, po; type: ADME, organism-based; conditions: in vivo
[17] = AUC in rat at 10 umole/kg, iv; type: ADME, organism-based; conditions: plasma
[18] = AUC in rat at 10 umole/kg, po; type: ADME, organism-based; conditions: plasma
[19] = Half life in rat at 10 umole/kg, iv; type: ADME, organism-based; conditions: in vivo, read-out: AUC (converted)
[20] = Mean residence time in rat at 10 umole/kg, iv; type: ADME, organism-based; conditions: in vivo

Chain of Growth hormone secretagogue receptor type 1 (Q92847 whole entry): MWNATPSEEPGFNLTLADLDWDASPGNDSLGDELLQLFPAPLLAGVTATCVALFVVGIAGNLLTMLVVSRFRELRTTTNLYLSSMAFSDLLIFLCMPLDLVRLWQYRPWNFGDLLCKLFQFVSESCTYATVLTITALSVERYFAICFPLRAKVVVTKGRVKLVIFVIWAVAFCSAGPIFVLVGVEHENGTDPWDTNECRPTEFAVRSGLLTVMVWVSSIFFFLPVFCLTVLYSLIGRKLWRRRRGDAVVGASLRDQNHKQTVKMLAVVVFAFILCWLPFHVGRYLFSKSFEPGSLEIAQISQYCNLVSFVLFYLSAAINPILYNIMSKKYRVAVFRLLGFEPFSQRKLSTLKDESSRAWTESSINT

| Vd [1] | bioavailability [2] | Cmax [4] | Tmax [5] | AUC [6] | AUC [7] | half-life [8] | MRT [9] | clearance [10] | EC50 [11] | clearance [12] | Vd [13] | bioavailability [14] | Cmax [15] | Tmax [16] | AUC [17] | AUC [18] | half-life [19] | MRT [20] | Structure (SMILES) | Activity [3] |
| --- | --- | --- | --- | --- | --- | --- | --- | --- | --- | --- | --- | --- | --- | --- | --- | --- | --- | --- | --- | --- |
| 6.4 L/kg | 9.2% | 68 nM | 0.7 h | 0.401 µM·h | 0.11 µM·h | 0.7 h | 0.5 h | 213 mL/min/kg |  |  |  |  |  |  |  |  |  |  | CC(C)(N)C(=O)N[C@H](COCc1ccccc1)c1nnnn1CCOC(=O)NCCCCO | 750% |
|  |  |  |  |  |  |  |  |  | 0.9 nM |  |  |  |  |  |  |  |  |  | CC(C)(N)C(=O)N[C@H](CCC(F)(F)c1ccccc1)c1nnnn1CCC#N |  |
|  |  |  |  |  |  |  |  |  | 0.27 nM | 183 mL/min/kg | 16 L/kg | 26% | 166 nM | 1.6 h | 0.901 µM·h | 0.239 µM·h | 2.4 h | 1.4 h | CC(C)(N)C(=O)N[C@H](CCC(F)(F)c1ccccc1)c1nnnn1CCOC(=O)NCCCCO | 1934% |
